Data on 2 compounds can be found in patent US20240398943A1, “METHODS OF TREATING CANCER AND THE PHARMACEUTICAL COMPOSITIONS THEREOF” (SYSTIMMUNE, INC., priority 2021, published 2024).

For data set [1], the system named is HCC827_936 cells (EGFR exon19del and exon20ins) tumor xenograft. The procedure:
(§1) Xenotransplantation of human cancer cells into immunocompromised mice is a gold-standard model used for pre-clinical oncology research and testing of anti-cancer therapies. In general, human cancer cell lines are injected below the skin of the mouse. […] The primary outcome parameter is growth inhibition by the drug, for which tumor size is measured over time, often externally with calipers. After the tumor reaches a certain size, the mice are euthanized. Drug effects on the tumor are further analyzed on a tissue level or molecular level (e.g., DNA, proteins). The primary outcome parameter of a xenograft model for testing drug efficacy is the growth of the treated tumor versus control. Typically, xenograft tumors grow from 100 mm^3 (6 mm diameter) to 1000 mm^3 (12 mm diameter) in several weeks. The growth rate often declines with larger tumor sizes, as opposed to exponential growth in (2D) in vitro experiments. Tumor growth inhibition varies per drug and implanted cell line. The effect of therapeutics can be directly on tumor cells, or indirectly via the microenvironment such as the inhibition of vessel formation, or both.
(§2) The experiment animals used were of Balb/c-nu mouse, female, ages 5^˜7 weeks, weight 17^˜21 g.
(§3) To establish xenograft model of NSCLC, two lung cancer cell lines expressing were used. Human lung adenocarcinoma cell line HCC827_936 was clonally derived from HCC827 cell line isolated from NSCLC tissue of a patient (ATCC). HCC827_936 cells express EGFR mutations of exon19del and exon20ins. The other lung cancer cell line, NCI-H1975 cells (ATCC), express the EGFR L858R/T790M double mutation.
(§4) Each of the three human cancer cell lines was cultured in RPMI1640 medium containing 10% fetal bovine serum, collected in the exponential growth phase, resuspended in PBS to a suitable concentration, and used for subcutaneous tumor implantation in mice.
When the tumor grew to an average volume of about 163 mm^3, randomly grouped according to tumor size and mouse weight to establish HCC827_936 xenograft model.
(§5) Tumor volume (mm^3) V=½×[…], where a represents the long diameter and b represents the short diameter. Relative tumor volume (RTV), RTV=Vt/V0, where V0 is the tumor volume at time 0 and Vt is the tumor volume after treatment at time t. The T/C value (%) is an indicator of the tumor response to treatment and is the most used evaluation indicator. T/C %=TRTV/CRTV×100%, where TRTV is treatment group average RTV and CRTV is control group average RTV. The T/C value (%) can also be calculated as T/C %=TTW/CTW×100%, where TTW is the average tumor weight at the end of the treatment group experiment and CTW is the average tumor weight at the end of the control group experiment.

For data set [2], the system named is NCI-H1975 cells (EGFR L858R/T790M) tumor xenograft. The procedure: as §1, §2, §3, §4
When the tumor grew to an average volume of about 170 mm^3, randomly grouped according to tumor size and mouse weight to establish […] NCI-H1975 xenograft model.
as §5

Data set [3] concerns FaDu cells (wild type EGFR) tumor xenograft. As to the method: as §1, §2
To establish xenograft model of HNSCC, human head and neck cancer cells, FaDu cells, were transplanted into the mice to establish the xenograft model of HNSCC. FaDu is a cell line isolated from a hypopharyngeal tumor of a squamous cell carcinoma patient, which expresses wild type EGFR (ATCC).
as §4
When the tumor grew to an average volume of about 230 mm3, randomly grouped according to tumor size and mouse weight to establish human head and neck squamous cell carcinoma cells FaDu xenograft model.
as §5, with “(mm3)” for “(mm^3)”

Setting [4] is: Osimertinib 96 mg/kg/wk p.o. QD, Day 31.
The mark [5] stands for this setting: Osimertinib 96 mg/kg p.o. QD, Day 25.

Where “and” joins values, the source holds several entries; their conditions need not be identical. Identical values can stand only once. Like-named read-outs stand apart in the source and are kept apart here.

As a reminder, the T/C is the ratio of treated to control. A word on the TGI: it is the reduction of tumour growth relative to the control group. Turning to `C=CC(=O)Nc1cc(Nc2nccc(-c3cn(C)c4ccccc34)n2)c(OC)cc1N(C)CCN(C)C` [Osimertinib], in data set [1] (setting [4]), the T/C was 45.1% and the “Tumor volume x ± SD” value turned out to be 344.53 mm^3. This compound also returned a mortality rate in data set [1] (Osimertinib single-agent (96 mg/kg), before D31) of 60%. Also, in data set [1] (female, Balb/c-nu, mouse, in vivo), the “mice died before D31” value is given as 3. For the same compound, in data set [1] (mouse, in vivo), the TGI was 54.89% and 54.9%; the “Tumor volume x ± SD” value was found to be 344.5 ± 23.6 mm^3. For the same compound, in data set [2] (setting [5]), the T/C is recorded as 4.7% and the “Tumor volume x ± SD” value was 75.02 mm^3. Also, in data set [2] (mouse, in vivo), the inhibition of tumour growth (TGI) is 95.35% and 95.4%; the “Tumor volume x ± SD” value came to 75.0 ± 60.3 mm^3; the “mice died before D25” value is listed as “no mouse died”.

paclitaxel+carboplatin: the “body weight / weight loss” value in data set [3] (all dose groups of the treatment) is given as “fluctuated significantly”. In data set [3] (all dose groups of the treatment, 5 mice per group), the “death of mice before the end of the experiment” value was found to be 4. Moreover, in data set [3] (paclitaxel 20.6 + carboplatin 28 mg/kg i.v. QW), the mortality rate is given as 80%. For the same compound, the “mice with severe weight loss (>20%) before death” value in data set [3] (paclitaxel 20.6 + carboplatin 28 mg/kg i.v. QW, of the 4 mice that died) worked out at 3. In addition, the TGI in data set [3] (paclitaxel […] + carboplatin 28 mg/kg i.v. QW) turned out to be 56.16%.
